Measurements as given in patent US20230312605A1, “PYRROLO[2,1-F][1,2,4]TRIAZINES AND PREPARATION AND USES THEREOF” (BioSplice Therapeutics, Inc., priority 2021, published 2023).

What was measured:
[1] = test system: Tau phosphorylation at Thr212 (pThr212) in HEK293T cells transfected with DYRK1A and MAPT; experiment: phosphoTau (Thr212) AlphaLISA tau phosphorylation cell assay; assay type: cell-based; details: HEK-293T, HEK293T cells transiently transfected with human DYRK1A and MAPT, compound treatment 18-24 hours, read-out: pTau (Thr212) EC50
Experimental: Representative compounds were screened using the assay procedure for tau phosphorylation activity described below.
HEK293T cells (ATCC, CRL3216) cultured in DMEM (Thermo Fisher Scientific, 10566024) supplemented with 10% FBS (Corning, 35-011-CV) and Penicillin/Streptomycin (Thermo Fisher Scientific, 15140163) were seeded in a 75 cm^2 flask at 8.1 × 10^6 cells/flask. The HEK293T cells were then transiently transfected with 5 µg DYRK1A (NM_001396) human untagged clone (OriGene, SC314641) and 2.5 µg MAPT (441 a.a. Tau gene) (NM_005910) human untagged clone (OriGene, TP313312) using Lipofectamine 3000 (Thermo Fisher Scientific, L30000015) and incubated for 20-30 hours in a humidified incubator at 37° C. and 5% CO^2. Post-incubation, HEK293T cells transfected with the DYRK1A and MAPT expression vectors were harvested and seeded in BioCoat poly-D lysine coated 96-well plates (Corning, 354461) at 3 × 10^4 cells/well.
The above synthesized compounds were screened using the cell assay procedure to assess decreased Tau phosphorylation at Thr212 (pThr212) described below.
Each compound was dissolved in DMSO (Sigma-Aldrich, D8418-100 mL) as a 10 mM stock. 10 mM stocks were serially diluted 1:3, 10-point dose-response curve and added to the cells with a final concentration ranging from 20 µM to 1.1 nM. Cells were treated with compounds in duplicate and incubated for 18-24 hours in a humidified incubator at 37° C. and 5% CO^2.
Following the overnight compound treatment, cells were lysed with 1X Alpha Surefire Ultra Lysis Buffer (Perkin Elmer, ALSU-LB-100ML) complemented with 1X Halt Phosphatase Inhibitor Cocktail (Thermo Fisher Scientific, 78427) and 1X Halt Protease Inhibitor Cocktail (Thermo Fisher Scientific, 78438). Lysates were spun down at 12,000 g for 10 min to remove any cellular debris and 5 µL of lysates were dispensed into a 384-well Opti-Plate (Perkin Elmer, 6007290) for the measurement of Tau phosphorylation in the phosphoTau (Thr212) AlphaLISA assay. Donor antibody, biotinylated HT7Tau (Thermo Fisher Scientific, MN1000B), and acceptor antibody, pThr212Tau (Thermo Fisher Scientific, 44740G) were both added to the cell lysates at a final concentration of 3 nM and incubated for 1 hour at room temperature. Following incubation of the lysates with the donor and acceptor antibodies, anti-rabbit IgG(Fc specific) AlphaLISA acceptor beads (Perkin Elmer, AL104C) were added at a 10 ug/mL final concentration and incubated for 1 hour at room temperature protected from light. Lastly, AlphaScreen streptavidin donor beads (PerkinElmer, 6760002) were added at 40 ug/mL final concentration and incubated for 1 hour at room temperature protected from light. Plates were read at Ex= […], and Em=615 nm on the EnVision Multilabel Plate Reader (Perkin Elmer)
phospho-Tau (Thr212) AlphaLISA signal was used to plot, draw the curve fitting, and determine each compound’s EC50 in Prism (GraphPad).

[2] = target: recombinant DYRK1A kinase (Homo sapiens (Human), UniProt Q13627); experiment: DYRK1A kinase assay (Ser/Thr 18 peptide Z-lyte FRET assay); assay type: biochemical; details: recombinant DYRK1A 0.25 µg/mL, ATP 15 µM, Ser/Thr peptide 18 4 µM, one hour at room temperature; table head prints EC50, method says IC50
Summary of the method: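 Recombinant human DYRK1A (0.25 µg/mL) with 15 µM ATP and 4 µM Ser/Thr 18 peptide was incubated 1 h at room temperature with compound (11-point, 10 µM top), in duplicate. Z-lyte FRET read-out (coumarin/fluorescein emission ratio) was converted to percent phosphorylation; IC50 from non-linear regression.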

## FC1(F)CCC(Nc2ncc3c(-c4cnc5nccn5c4)ccn3n2)CC1 [Compound 256, N-(4,4-Difluorocyclohexyl)-5-(imidazo[1,2-a]pyrimidin-6-yl)pyrrolo[2,1-f] [1,2,4]triazin-2-amine]
[1]
  EC50: 220 nM
[2]
  EC50: 5 nM

## O[C@H]1C[C@@H](Nc2ncc3c(-c4ccc5nccnc5c4)ccn3n2)C1 [Compound 1724, cis-3-((5-(Quinoxalin-6-yl)pyrrolo [2,1-f] [1,2,4]triazin-2-yl)amino) cyclobutan-1-ol]
[1]
  EC50: 305 nM
[2]
  EC50: 11 nM

## FC1(F)CC2(CC(Nc3ncc4c(-c5cnc6nccn6c5)ccn4n3)C2)C1 [Compound 281, N-(6,6-Difluorospiro[3.3]heptan-2-yl)-5-(imidazo[1,2-a]pyrimidin-6-yl) pyrrolo[2,1-f] [1,2,4]triazin-2-amine]
[1]
  EC50: 70 nM
[2]
  EC50: 3 nM

## Cc1nc2ccc(-c3ccn4nc(NC5CCC(F)(F)CC5)ncc34)nc2n1CCF [Compound 1037, N-(4,4-Difluorocyclohexyl)-5-(3-(2-fluoroethyl)-2-methyl-3H-imidazo[4,5-b]pyridin-5-yl)pyrrolo[2,1-f][1,2,4]triazin-2-amine]
[1]
  EC50: 403 nM
[2]
  EC50: 20 nM

## c1cnc2cc(-c3ccn4nc(NC5CC6(COC6)C5)ncc34)ccc2n1 [Compound 1418, 5-(Quinoxalin-6-yl)-N-(2-oxaspiro[3.3]heptan-6-yl)pyrrolo[2,1-f][1,2,4] triazin-2-amine]
[1]
  EC50: 212 nM
[2]
  EC50: 11 nM

## C[C@]1(O)CC[C@@H](Nc2ncc3c(-c4ccc5nccnc5c4)ccn3n2)CC1 [Compound 1394, (1s,4s)-1-Methyl-4-((5-(quinoxalin-6-yl)pyrrolo[2,1-f][1,2,4]triazin-2-yl)amino)cyclohexan-1-ol]
[1]
  EC50: 709 nM
[2]
  EC50: 14 nM

## FC1(F)CC(Nc2ncc3c(-c4ccc5nccn5c4)ccn3n2)C1 [Compound 23, N-(3,3-Difluorocyclobutyl)-5-(imidazo[1,2-a]pyridin-6-yl)pyrrolo[2,1-f] [1,2,4]triazin-2-amine]
[1]
  EC50: 794 nM
[2]
  EC50: 28 nM
